The target of one assay is T1, cathepsin D (CTSD) (Homo sapiens, UniProt P07339).
T1 construct: cell lysates (1 μg of total proteins) were pre-incubated with citrate buffer pH 4.0; endogenous in cells; host or cells: HepG2
Briefly: Cathepsin D (CTSD) peptidase activity in lysates of treated HepG2 cells (MOCAc quenched fluorogenic substrate). The format is cell-based. The protocol:
(§1) Lysosomal functions was investigated in a hepatocellular carcinoma (HCC) cell line HepG2 after 6 hours and 24 hours of treatment with compound 2-3 (the hydrochloride salt form of compound 2-2) using functional assays of some lysosomal enzymes activity: two cysteine proteinases: cathepsin B (CTSB) and cathepsin L (CTSL), and one aspartic proteinase: cathepsin D (CTSD). Two sets of three concentrations of compound 2-3 (1 μM, 2 μM, and 4 μM for 6 hours, and 0.5 μM, 1 μM and 2 μM for 24 hours) were tested at least in triplicate and four independent experiments were performed. Salinomycin (7.5 μM for 6 hours and 24 hours) was used as a positive control.
(§2) The HepG2 cell line was maintained in DMEM (Dulbecco's Modified Eagle Media) high glucose (Cat #L0103-500, Dutscher) containing 1% penicillin-streptomycin (Cat #P06-07100, Dutscher) and 10% FBS (Fetal Bovine Serum) (Cat #11543407, Life Technologies). Cells were cultured at 37° C. with 5% CO2.
(§3) The day before the experiment, 6-well plates (Cat #353046, Dutscher) with 250,000 cells in 2.7 mL of medium per well were prepared.
(§4) Compound 2-3 was dissolved with filtrated H2O mQ to make a 10 mM stock solution and serial working solutions (10× solutions) were prepared with the diluent (=culture medium with 0.4% H2O mQ) at 5 μM, 10 μM, 20 μM and 40 μM: the “dilution 1” is made from the 10 mM stock solution in the culture medium and the following serial dilutions were made in the diluent to maintain a constant percentage of H2O.
Salinomycin [CAS 53003-10-4] was used as positive control and was dissolved with methanol to make a 10 mM stock solution and a 10× solution at 75 μM was prepared with the culture medium. […]
After 6 hours or 24 hours of cells treatment, the medium was removed from each well. […] Total protein concentration was assessed using the Bradford reagent (Cat #B6916-500ML, Sigma-Aldrich) and cellular lysates were stored at −80° C. until catalytic activity measurement. […]

The target of another assay is T2, cathepsin B (CTSB) (Homo sapiens, UniProt P07858).
T2 construct: endogenous in cells; host or cells: HepG2
Briefly: Cathepsin B (CTSB) catalytic activity in lysates of treated HepG2 cells (Z-RR-AMC substrate). To be noted: for CTSB activity versus NT: 6 hours of treatment. The format is cell-based. Here is the method: as §1, §2, §3, §4
Salinomycin [CAS 53003-10-4] was used as positive control and was dissolved with methanol to make a 10 mM stock solution and a 10× solution at 75 μM was prepared with the culture medium.
300 μL of compound 2-3 10× solutions (solutions at 10 μM, 20 μM and 40 μM for 6 hours of treatment and solutions at 5 μM, 10 μM and 20 μM for 24 hours of treatment) or 300 μL of diluent (=non-treated (NT) condition) or 300 μL of Salinomycin 10× solution were dispensed in the appropriate wells (4 wells/condition). After cells treatment, 6-well plates were returned to incubator for 6 hours or 24 hours.
After 6 hours or 24 hours of cells treatment, the medium was removed from each well. The cells were carefully rinsed with PBS (phosphate-buffered saline, Cat #L0615-500, Dutscher) and detached with 500 μL per well of a trypsin solution. After 5 min of trypsin (Cat #L0930-100, Dutscher) incubation at 37° C., 800 μL of medium was added per well and transferred to a 1.5 mL tube. Then, 800 μL of PBS was used to rinse each well and the corresponding solution was pooled in each corresponding 1.5 mL tube. […] Total protein concentration was assessed using the Bradford reagent (Cat #B6916-500ML, Sigma-Aldrich) and cellular lysates were stored at −80° C. until catalytic activity measurement. […]

Counter-ions that a name gives are not always drawn.

Data on 1 compound can be found in US11261189B2, “Substituted 2,4 diamino-quinoline as new medicament for fibrosis, autophagy and cathepsins B (CTSB), L (CTSL) and D (CTSD) related diseases” (Genoscience Pharma, priority 2018, dated 2022).

T1 sequence (P07339 65-412): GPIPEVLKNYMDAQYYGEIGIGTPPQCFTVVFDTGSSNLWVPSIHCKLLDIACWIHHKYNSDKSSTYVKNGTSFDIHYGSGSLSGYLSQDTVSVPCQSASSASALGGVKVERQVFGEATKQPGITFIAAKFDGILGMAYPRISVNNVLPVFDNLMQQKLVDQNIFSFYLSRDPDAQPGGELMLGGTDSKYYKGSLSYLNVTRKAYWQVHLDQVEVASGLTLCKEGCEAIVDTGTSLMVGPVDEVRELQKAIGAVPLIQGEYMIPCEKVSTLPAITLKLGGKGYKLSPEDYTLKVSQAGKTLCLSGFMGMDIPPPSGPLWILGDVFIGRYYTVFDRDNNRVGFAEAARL

Take `CC(C)(C)NC1CCN(c2cc(NCc3ccc(Cl)cc3)nc3ccccc23)CC1` [2-3, 2-(4-chlorobenzylamino)-4-(4-tert-butylaminopiperidin-1-yl)-quinoline Hydrochloride Salt]: the “CTSD activity versus NT” value on cathepsin D (CTSD) (HepG2, 4 μM, 6 hours of treatment) was 60.6%. Besides, the “inhibition of cathepsin D (CTSD) compare to the control” value against cathepsin D (CTSD) (HepG2, 4 μM for 6 hours and 2 μM for 24 hours, p<0.05) is listed as “statistically significant”. For the same compound, the “CTSB activity versus NT” value amounted to 75.4% at cathepsin B (CTSB) (HepG2, 2 μM) and 54.0% on cathepsin B (CTSB) (HepG2, 4 μM). The “inhibition of cathepsin B (CTSB) compare to the control” value at cathepsin B (CTSB) (HepG2, 2 μM, 4 μM for 6 hours and 2 μM for 24 hours, p<0.05) was “statistically significant”.
